Laboratory results taken from patent US20250025553A1, “COMBINATION THERAPY FOR CANCER” (Medannex Ltd., priority 2021, published 2025).
Entries after “also recorded” stand apart in the source; their conditions may differ. Read-outs that look alike come from different tables or passages of the source.

Experiments:
[1] = system: MIA PaCa-2 pancreatic cancer cell line; assay: MTT cell proliferation assay, MIA PaCa-2; format: cell-based, human
Method: (§1) The cell lines were obtained from Public Health England Culture Collections. MIA-PaCa-2 is a human pancreatic carcinoma cell line; PANC-1 is a human pancreatic epithelioid carcinoma cell line.
(§2) Assays were performed in triplicate.
(§3) Cells were then cultured for 24 hr prior to assay, then cell proliferation was measured.
(§4) With both cell lines 5FU was used at its IC50. The IC50 concentration represents the concentration at which a substance exerts half of its maximal inhibitory effect. The IC50 for each cell line was calculated by treating with a series of 10-fold dilutions of 5FU ranging from 1 nM to 10 mM. The MTT assay was used to calculate cancer cell viability after 72 hr incubation with 5FU at each concentration.

[2] = system: PANC-1 pancreatic cancer cell line; assay: MTT cell proliferation assay, PANC-1; format: cell-based, human; conditions: for IC50: Homo sapiens, PANC-1, MTT
Method: as §1, §2, §3, §4

[3] = system: Human multiple myeloma cell lines (H929, JJN3 and U266); assay: Apoptosis assay (Annexin V and 7-AAD labelling, flow cytometry); format: cell-based; conditions: MDX-124 20 μM, bortezomib 20 nM or both (1000:1), 48 h
Method: The effect of MDX-124, bortezomib and the combination of both agents on apoptosis was assessed using Annexin V and 7-AAD labelling. Human multiple myeloma cell lines (H929, JJN3 and U266, all from DSMZ, Leibniz Institute, German Collection of Microorganisms and Cell Cultures, GmbH, Germany) were incubated with either MDX-124 (20 μM), bortezomib (20 nM, Cell Signaling Technology, MA, USA) or the combination of both agents (fixed molar ratio of 1000:1) in 1 mL of RPMI media supplemented with 10% FCS for 48 h. The percentage of apoptosis above untreated control cell levels was quantified using flow cytometry for each respective treatment group.

[4] = system: p-BCL2 (pS70); assay: Expression of apoptosis related protein p-BCL2 (flow cytometry); format: cell-based, human; conditions: MDX-124 20 μM, bortezomib 20 nM or both, 4 h; multiple myeloma cell lines
Method: (§5) The effects of MDX-124, bortezomib and the combination of both agents on the expression of 2 apoptosis related proteins, p-BCL2 and p-STAT3, was assessed using flow cytometry. Aliquots of each human multiple myeloma cell line were treated with either MDX-124 (20 μM), bortezomib (20 nM) or a combination of MDX-124 and bortezomib for 4 h prior to staining with an Alexa488-labelled p-STAT3 (Tyr705, from BD Biosciences, catalogue #557814) antibody and a PE-labelled p-BCL2 ([…], BD Biosciences, catalogue #562532) antibody. Mean fluorescence intensity values for each treatment group were compared with untreated control cells.

[5] = system: p-STAT3 (Tyr705); assay: Expression of apoptosis related protein p-STAT3 (flow cytometry); format: cell-based, human; conditions: MDX-124 20 μM, bortezomib 20 nM or both, 4 h; multiple myeloma cell lines
Method: as §5

[6] = system: interleukin-6 (IL-6); assay: Intracellular IL-6 expression (flow cytometry); format: cell-based, human; conditions: MDX-124 20 μM, bortezomib 20 nM or both, 24h; multiple myeloma cell lines
Method: The effects of each agent, both alone and in combination, on the expression of interleukin-6 (IL-6) were assessed using flow cytometry. […] Mean fluorescence intensity values for IL-6 for each respective treatment group were compared with untreated control cells.

[7] = system: triple-negative breast cancer cell line HCC1806; assay: MTT cell proliferation assay, HCC1806
[8] = system: LL/2 lung cancer cells; assay: LL/2 murine model of lung cancer; format: in vivo, C57BL/6 mice; conditions: LL/2, MDX-124 10 mg/kg weekly, anti-PD-1 10 mg/kg twice weekly; two-way repeated measures ANOVA/mixed-effects model
Method: Drugs were administered as described above. Tumour volume was measured at days 2, 5, 8, 12 and 15, at which point the vehicle and monotherapy groups were terminated. The combination therapy group was measured again at day 19 and then terminated.
Results were analysed using a two-way repeated measures ANOVA/mixed-effects model. […] No body weight loss was detected in this study.

[9] = system: EMT6 triple-negative breast cancer cells; assay: EMT6 mouse model of breast cancer; format: in vivo, BALB/c mice
Method: Nine-week-old female BALB/c mice were inoculated subcutaneously with 5×10^5 EMT6 triple-negative breast cancer cells. […] Tumour volume was measured twice weekly for 3 weeks. The anti-PD-1 antibody used is the mouse antibody RMP-1-14 (Yamazaki et al., Journal of Immunology 175(3): 1586-1592, 2005); PBS was administered by intraperitoneal injection; antibodies were administered by intravenous injection.

`O=c1[nH]cc(F)c(=O)[nH]1` [5FU, 5-fluorouracil, reference compound] was tested, and the IC50 ([1]; Homo sapiens, MIA PaCa-2, MTT, 72 hr incubation, repeated 8 times, read-out: IC50 of 5FU (concentration at which 50% of cells were not viable)) was 100 µM and the IC50 ([2]; 72 hr incubation, repeated 8 times, read-out: IC50 of 5FU (concentration at which 50% of cells were not viable)) was 1000 µM.

With `CC(C)C[C@H](NC(=O)[C@H](Cc1ccccc1)NC(=O)c1cnccn1)B(O)O` [bortezomib, reference compound] the “apoptosis (percentage above untreated control cell levels)” value [3] was “significantly induced apoptosis”, the “expression of p-BCL2 (mean fluorescence intensity vs untreated control cells)” value [4] was “reduced the expression” and the “expression of p-STAT3 (mean fluorescence intensity vs untreated control cells)” value [5] was “reduced the expression”. The “intracellular IL-6 expression (mean fluorescence intensity vs untreated control cells)” value [6] was “modestly reduced”.

In the case of `N.N.[Cl][Pt][Cl]` [cisplatin, reference compound], the IC50 ([7]; read-out: IC50 of cisplatin (concentration at which 50% of cells were not viable), HCC1806, MTT, repeated four times) is reported as 0.65 µM.

`Nc1ccn([C@@H]2O[C@H](CO)[C@@H](O)C2(F)F)c(=O)n1` [gemcitabine, reference compound] was tested, and the IC50 ([2]; repeated three times, read-out: IC50 of gemcitabine (concentration at which 50% of cells were not viable)) was 20 µM.

In the case of `CC(=O)O[C@H]1C(=O)[C@@]2(C)[C@H]([C@H](OC(=O)c3ccccc3)[C@]3(O)C[C@H](OC(=O)[C@H](O)[C@@H](NC(=O)c4ccccc4)c4ccccc4)C(C)=C1C3(C)C)[C@]1(OC(C)=O)CO[C@@H]1C[C@@H]2O` [paclitaxel, reference compound], the IC20 ([7]; Homo sapiens, HCC1806, read-out: IC20 of paclitaxel (concentration at which 20% of cells were not viable)) is reported as 0.0004 µM.

With “MDX-124: humanised IgG1 antibody against ANXA1 with a light chain of SEQ ID NO: 13 and a heavy chain of SEQ ID NO: 14” the “anti-proliferative effect, single agent” value ([1]; MIA PaCa-2, MDX-124 alone 2.5-10 μM, 72 hours, vs IgG isotype control) was “significantly reduces cancer cell proliferation; also recorded: relatively potent anti-proliferative effect”, the “anti-proliferative effect, single agent” value ([2]; PANC-1, MDX-124 alone 2.5-10 μM, 72 hours, vs IgG isotype control) was “significantly reduces cancer cell proliferation; also recorded: relatively potent anti-proliferative effect” and the “tumour growth compared to vehicle (and monotherapies)” value [8] was “No significant differences”. For the same molecule, the “apoptosis (percentage above untreated control cell levels)” value [3] was “had an impact on apoptosis”, the “expression of p-BCL2 (mean fluorescence intensity vs untreated control cells)” value [4] was “reduced the expression” and the “expression of p-STAT3 (mean fluorescence intensity vs untreated control cells)” value [5] was “reduced the expression”. The “intracellular IL-6 expression (mean fluorescence intensity vs untreated control cells)” value [6] was “modestly reduced” and the “anti-proliferative effect, single agent” value ([7]; HCC1806, MDX-124 alone 2.5-10 μM, vs IgG isotype control) was “significantly reduces cancer cell proliferation; also recorded: anti-proliferative effect”.

B1: MDX-001: murine anti-ANXA1 antibody, parent of MDX-124; light and heavy chains of SEQ ID NOs: 30 and 31 (antibody, listed as Mus musculus)
heavy: QVQLQQSGPELVRPGTSVKMSCKASGYTFTNYWIGWAKQRPGHGLEWIGDIYPGGDYTNYNEKFKGKATLTADKSSSTAYMQFSSLTSEDSAIYYCARWGLGYYFDYWGQGITLTVSSAKTTPPSVYPLAPGCGDTTGSSVTLGCLVKGYFPESVTVTWNSGSLSSSVHTFPALLQSGLYTMSSSVTVPSSTWPSQTVTCSVAHPASSTTVDKKLEPSGPISTINPCPPCKECHKCPAPNLEGGPSVFIFPPNIKDVLMISLTPKVTCVVVDVSEDDPDVQISWFVNNVEVHTAQTQTHREDYNSTIRVVSTLPIQHQDWMSGKEFKCKVNNKDLPSPIERTISKIKGLVRAPQVYILPPPAEQLSRKDVSLTCLVVGFNPGDISVEWTSNGHTEENYKDTAPVLDSDGSYFIYSKLNMKTSKWEKTDSFSCNVRHEGLKNYYLKKTISRSPGK
light: DAVMTQTPLSLPVSLGDQVSISCRSSQSLENSNGKTYLNWYLQKPGQSPQLLIYGVSNRFSGVLDRFSGSGSGTDFTLKISRVEAEDLGVYFCLQVTHVPYTFGGGTKLEIKRADAAPTVSIFPPSSEQLTSGGASVVCFLNNFYPKDINVKWKIDGSERQNGVLNSWTDQDSKDSTYSMSSTLTLTKDEYERHNSYTCEATHKTSTSPIVKSFNRNEC
B1 was tested, and the “tumour growth compared to the vehicle control” value ([9]; EMT6, MDX-001 10 mg/kg weekly, anti-PD-1 10 mg/kg twice weekly, i.v., 3 weeks) was “did not significantly affect tumour growth”, the adverse effects ([9]; EMT6 model) was “no adverse effects” and the “tumour growth compared to vehicle (and monotherapies)” value [8] was “neither MDX-001 nor the anti-PD-1 antibodies displayed efficacy”.
